Reference: BindingDB's records for doi:10.1016/j.ejmech.2019.111921 (University of Kwazulu-Natal, 2020)

How the values were obtained:
Beta-glucuronidase [1] = biological target: T1, Beta-glucuronidase (Rattus norvegicus, UniProt P06760); experiment: Inhibition of degranulated rat neutrophils beta-glucuronidase
T1 sequence (P06760 whole entry): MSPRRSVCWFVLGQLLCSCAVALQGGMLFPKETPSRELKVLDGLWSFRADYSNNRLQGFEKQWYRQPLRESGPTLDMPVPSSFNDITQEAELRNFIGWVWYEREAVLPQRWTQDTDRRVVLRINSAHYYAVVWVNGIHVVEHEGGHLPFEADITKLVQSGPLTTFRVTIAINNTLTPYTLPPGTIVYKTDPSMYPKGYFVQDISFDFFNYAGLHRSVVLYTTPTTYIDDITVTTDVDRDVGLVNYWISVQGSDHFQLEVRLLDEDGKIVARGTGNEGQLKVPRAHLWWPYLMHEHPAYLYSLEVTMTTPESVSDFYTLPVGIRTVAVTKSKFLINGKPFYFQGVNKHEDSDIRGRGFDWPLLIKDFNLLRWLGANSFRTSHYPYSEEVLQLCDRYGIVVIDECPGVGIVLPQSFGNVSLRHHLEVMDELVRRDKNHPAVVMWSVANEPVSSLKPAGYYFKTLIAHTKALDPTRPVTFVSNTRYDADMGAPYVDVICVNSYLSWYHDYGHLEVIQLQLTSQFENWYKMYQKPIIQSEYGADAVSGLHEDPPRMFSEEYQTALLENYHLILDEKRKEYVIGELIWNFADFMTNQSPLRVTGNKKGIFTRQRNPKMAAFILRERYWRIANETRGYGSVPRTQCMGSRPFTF

Beta-glucuronidase [2] = biological target: T1, Beta-glucuronidase; experiment: Inhibition of degranulated rat peritoneal mast cells beta-glucuronidase
Beta-glucuronidase [3] = biological target: T2, Beta-glucuronidase (Homo sapiens, UniProt P08236); experiment: Inhibition of beta-glucuronidase (unknown origin)
T2 sequence (P08236 whole entry): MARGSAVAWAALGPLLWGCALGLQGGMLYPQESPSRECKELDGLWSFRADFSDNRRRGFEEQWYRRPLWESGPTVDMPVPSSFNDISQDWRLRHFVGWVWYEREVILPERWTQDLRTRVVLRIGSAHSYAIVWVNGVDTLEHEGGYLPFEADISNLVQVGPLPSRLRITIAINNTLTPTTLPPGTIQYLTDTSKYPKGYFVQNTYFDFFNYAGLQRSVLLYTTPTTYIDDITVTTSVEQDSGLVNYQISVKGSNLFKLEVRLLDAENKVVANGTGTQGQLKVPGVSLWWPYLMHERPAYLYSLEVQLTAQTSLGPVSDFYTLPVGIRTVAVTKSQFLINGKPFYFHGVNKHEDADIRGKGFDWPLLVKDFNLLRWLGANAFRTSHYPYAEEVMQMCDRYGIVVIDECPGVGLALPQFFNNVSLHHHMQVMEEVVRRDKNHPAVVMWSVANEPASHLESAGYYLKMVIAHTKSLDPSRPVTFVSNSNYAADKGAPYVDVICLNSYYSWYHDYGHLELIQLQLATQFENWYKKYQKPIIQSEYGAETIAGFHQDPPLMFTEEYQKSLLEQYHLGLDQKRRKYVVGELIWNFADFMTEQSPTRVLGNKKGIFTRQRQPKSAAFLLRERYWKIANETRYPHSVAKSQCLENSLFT

Question: Which IC50 (Beta-glucuronidase [1]) does the source give for `COc1cc(/C=C/C(=O)OC/C(C)=C\Cc2c(O)ccc(C(=O)/C=C/c3ccc(O)cc3)c2O)ccc1O` [Gemichalcone A] here?
Answer: 6.6 µM

Question: What about the IC50 (Beta-glucuronidase [2]) of the same molecule?
Answer: 70 µM

Question: How did the IC50 (Beta-glucuronidase [3]) turn out when `COc1cc([C@@H]2Oc3cc([C@H]4Oc5cc(O)cc(O)c5C(=O)[C@@H]4O)ccc3O[C@H]2CO)ccc1O` [Silybin B] was run?
Answer: 1640 µM

Question: For `C/C(=C/Cc1c(O)ccc(C(=O)/C=C/c2ccc(O)cc2)c1O)COC(=O)/C=C/c1ccc(O)cc1` [gemichalcones B], which IC50 (Beta-glucuronidase [1]) is on record?
Answer: 5.8 µM
